Source: publication PMC7463734, “Identification and Validation of an Aspergillus nidulans Secondary Metabolite Derivative as an Inhibitor of the Musashi-RNA Interaction” (Cancers, 2020)
Where two headings read alike, the source gives them in different places.

What was measured:
RBD1 of MSI1 = target: T1, RBD1 of MSI1 (Homo sapiens, UniProt O43347); assay: FP dose-response (competition) disrupting RBD1-Numb^FITC complex; format: binding
T1 construct: made in house; host or cells: Escherichia coli
T1 sequence (O43347 20-107): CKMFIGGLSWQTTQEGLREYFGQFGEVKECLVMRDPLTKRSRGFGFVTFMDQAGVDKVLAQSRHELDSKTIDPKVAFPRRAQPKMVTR
Procedure: To further examine the initial hits, we tested compounds with similar scaffolds shown in Figure 3 and Figure S1 in an FP dose-response assay. […] We thus focused our further validation studies on Aza-9.
Figure 4 FP dose-response validation compounds binding to RBD1 of MSI1. Ki values were calculated based on the Kd and the dose-response curves. TEXT PRINTED IN THE PICTURE: Aza-7: IC50 [μM]: 7.1; Ki [μM]: 3.0 | Aza-8: IC50 [μM]: 4.0; Ki [μM]: 1.7 | Aza-9: IC50 [μM]: 2.8; Ki [μM]: 1.2 | Aza-10: IC50 [μM]: 7.5; Ki [μM]: 3.2 | Aza-11: IC50 [μM]: 3.9; Ki [μM]: 1.7 | Aza-12: IC50 [μM]: 6.3; Ki [μM]: 2.7 | Aza-13: IC50 [μM]: 4.5; Ki [μM]: 1.9 | Aza-14: IC50 [μM]: 11.6; Ki [μM]: 5.0 | Aza-15: IC50 [μM]: >20 | Aza-16: IC50 [μM]: 6.8; Ki [μM]: 2.9 | Aza-17: IC50 [μM]: >20
pET21a-GB1-RBD1 (MSI1-RBD1) plasmids encoding the Homo sapiens RNA binding domain 1 (RBD1, residues 20-107) of MSI1 were constructed with Mus musculus cDNAs under T7 promoter. MSI1-RBD1 proteins were expressed in Escherichia coli and purified, as previously described. Protein concentrations were determined using the Bradford assay (Bio-Rad, Hercules, CA, USA). Purification of MSI2-RBD1 protein was carried out according to the previous publication.
FP, SPR and NMR assays were carried out according to the previous publication. For computer modeling of Aza-9 to MSI1/2, the AutoDock4.2.6 program was used for predicting the binding mode. The NMR structure of MSI1-RBD1 in complex with RNA (PDB: 2RS2) and the NMR structure of apo MSI2-RBD1 (PDB: 6C8U) were used as the receptor structure. The MSI1 RBD1–RNA interface and corresponding site in MSI2-RBD1 was used as the starting point for the docking calculations. The initial three-dimensional model of the Aza-9 compound was generated using the BABEL program and was used as starting coordinates to define the ligand structure. For docking, a grid box of size 40 × 44 × 56 A with 0.375 A spacing was centered at residue F23 in MSI1-RBD1 (or F24 in MSI2-RBD1). A total of 200 docking runs were carried out using the Lamarckian genetic algorithm. The docked conformation with the lowest energy was selected as the final conformation.

MSI2-RBD1 = target: T2, MSI2-RBD1 (Homo sapiens, UniProt Q96DH6); assay: FP dose response of binding to MSI2-RBD1 (Numb^FITC RNA)
T2 construct: made in house
T2 sequence (Q96DH6 21-111 limits assumed): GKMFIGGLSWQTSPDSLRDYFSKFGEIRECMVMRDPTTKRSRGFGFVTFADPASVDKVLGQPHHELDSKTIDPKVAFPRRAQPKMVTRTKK
Excerpt: To test whether Aza-9 can be used as a dual inhibitor to block the RNA-binding ability of both Musashi proteins, we tested Aza-9 for Musashi-2 (MSI2) binding in FP and NMR assays as previously described. […] These residues are in similar positions to F23, F65, and K93 in MSI1-RBD1 [36]. We mapped the peak intensity ratios lower than one standard deviation from the mean (Figure S2) to the structure of MSI2-RBD1. Residues with significant peak intensity reductions clustered around the RNA binding site, which is composed of the central four anti-parallel β sheets and surrounding loops (Figure 6C).
Figure 6 Aza-9 binds to MSI2-RBD1. (A) FP dose response of Aza-9 binding to MSI2-RBD1. (B) ^1H-^15N HSQC spectra of 80 μM ^15N and ^13C ILV methyl labeled MSI2-RBD1 with increasing molar ratios of AZA-9. (C) Mapping residues with peak intensity ratio lower than one standard deviation from the mean onto the structure of MSI2-RBD1. Residues with peak intensity ratio lower than 0.40 are colored red; residues with peak intensity ratios in the range of 0.40–0.54 are colored yellow. (D) Computational docking of Aza-9 bound to MSI2-RBD1. The Aza-9 is shown in sticks, and the protein is represented as spheres. Five of MSI2-RBD1 RNA binding residues (M23, G26, F64, V95, and K94) that undergo significant peak shifts are highlighted in green. […]

GB1-RBD1 (MSI1) = test system: T3, GB1-RBD1 (MSI1); assay: SPR binding to immobilized GB1-RBD1; set-up: species or system Homo sapiens; conditions: increasing concentrations
T3 construct: made in house; host or cells: Escherichia coli
Excerpt: An SPR assay with the protein GB1-RBD1 and not the RNA allowed us to evaluate the binding of the compound to the protein directly.
Figure 5 Validation of the top hit Aza-9. (A) SPR analyses of Aza-9 binding to immobilized GB1-RBD1. Sensorgram representing direct binding kinetics for Aza-9 are shown in response units (RUs) as a function of time with increasing concentrations (shown as colorful lines). (B) Numb RNA pulldown. (Top) Numb^biotin (lane 4) can pull down MSI1 but not CTL^biotin (lane 3); Numb-Mut^biotin (lane 2) partially pulled down MSI1. […] (Bottom) 20 μM Aza-9 attenuated the binding between MSI1 and Numb^biotin RNA. n = 2, one representative western blot is shown. (C) Overlay of 15N-HSQC (Heteronuclear single quantum coherence spectroscopy) spectra sections of MSI1-RBD1 (black), and MSI1-RBD1 bound to Aza-9 at different ratios. (D) Computational docking of Aza-9 bound to RBD1. The Aza-9 is shown in sticks, and the protein is represented as spheres. Three of MSI1-RBD1 RNA binding residues (W29, F23, and K93) that undergo significant peak shifts are highlighted in cyan.
FP, SPR and NMR assays were carried out according to the previous publication. For computer modeling of Aza-9 to MSI1/2, the AutoDock4.2.6 program was used for predicting the binding mode. […]

MSI1 = test system: T4, MSI1; assay: Numb RNA pull-down from HCT-116 β/W cell lysate; format: cell-based, Human; conditions: 20 μM, 6 h
T4 construct: test whether biotinylated Numb RNA (Numb^biotin) can pull down MSI1 protein from the cell lysate; endogenous in cells; host or cells: HCT-116 β/W
Excerpt: To test whether Aza-9 disrupts the binding of MSI1 to Numb RNA in cells, we carried out an RNA pull-down assay using HCT-116 β/W cell lysate. Before we tested our compound in the assay, we tested whether biotinylated Numb RNA (Numb^biotin) can pull down MSI1 protein from the cell lysate. […] Mutations in Numb (Numb-mut^biotin) attenuated its binding to MSI1 (lane 2 versus lane 4, Figure 5B and Figure S4 top panel). As a positive control, we added non-labelled Numb RNA to the system, Numb RNA completely abolished the binding between Numb^biotin and MSI1 (lane 6 versus lane 4, Figure 5B and Figure S4 top panel). […] Next, we tested whether Aza-9 can attenuate MSI1 RNA binding.
RNA pull-downs were carried out according to manufacturer’s protocol with modifications (Roche, Basel, Switzerland). Briefly, HCT-116 β/W cells were plated on 100 mm dish on day 1. The next day, cells were treated with Aza-9 (20 μM) or DMSO for 6 h, and cell lysates were collected using buffer 1 from IP kit (Roche). Protein concentrations were measured for each sample, and streptavidin beads were added for preclearance and incubated at 4 °C for 3 h. After preclearance, for each sample, 500 μg of total protein was transferred to a new tube. For positive control, unlabeled Numb (final concentration: 5 μM) was added and incubated in 4 °C. […]

HCT-116 = assay: MTT-based cytotoxicity assay; format: cell-based, Human
Procedure: In an 3-(4,5-dimethylthiazol-2-yl)-2,5-diphenyl tetrazolium bromide (MTT)-based cytotoxicity assay, free Aza-9 had no effect on the cell viability (Figure 7A), potentially due to poor cellular uptake (Figure 7B, upper left panel). We then used PEGylated liposomes to facilitate Aza-9 entry into the cells (Figure 7B, bottom panel compare to upper left panel). Compared to the free Aza-9, which has no effect at 300 µM, Aza-9-liposome (Aza-9-lip) killed colon cancer cell line HCT-116 with an IC50 around 90 µM (Figure 7A). […] Consistent with MTT, Aza-9-lip, but not liposomes, inhibited cell proliferation in a cell growth assay (Figure 7C). […] (Figure 8A). To determine whether Aza-9-lip induces apoptosis and/or autophagy in the colon cancer cell lines, we first measured caspase-3 and PARP cleavage levels. As shown in Figure 8B and Figure S5, Aza-9-lip induced caspase-3 and PARP cleavage in HCT-116 and DLD-1 cells. […]
Human colon cancer cell lines HCT-116, DLD-1, and RKO were obtained from American Type Culture Collection (ATCC) and are as described by Lan et al.. Cell growth, MTT, cell cycle analysis, western blot analysis, RT-PCR, and quantitative real-time PCR were carried out according to our previous publications. For western blot analysis with Aza-9-liposome treatment, samples were collected after 24 h; for quantitative real-time PCR, samples were collected after 48 h. […]

GB1-MSI1-RBD1 = GB1-MSI1-RBD1 (Homo sapiens (Methods: human RBD1, …, UniProt O43347 20-107)); assay: fluorescence polarization; 2-10 nM RNA; FP with 2 nM FITC-RNA; 0-2% DMSO had no significant effect (2 h incubation); buffer, salt, pH and temperature not given (cited to earlier publications); conditions: protein: recombinant; tags: GB1 (protein G B1 domain); label: 3'-FITC; single strand
[1] = FP dose-response, RBD1 of MSI1, read-out: IC50
[2] = calculated based on the Kd and the dose-response curves, read-out: Ki

| IC50 (RBD1 of MSI1; [1]) [nM] | Ki (RBD1 of MSI1; [2]) [nM] | Molecule | other results |
| --- | --- | --- | --- |
| 2800 | 1200 | CC[C@H](C)/C=C(C)/C=C/C1=CC2=C(Br)C(=O)C(C)(OC(C)=O)C(=O)C2=CO1 (some centres unmarked) [Aza-9] | dose-response effect in disrupting the RBD1-Numb^FITC complex / affinity towards GB1-RBD1 (RBD1 of MSI1): highest affinity; IC50 (MSI2-RBD1): 4100 nM; Ki (MSI2-RBD1): 500 nM; binding to GB1-RBD1 in SPR (GB1-RBD1 (MSI1)): dose-dependent binding; binding between MSI1 and Numb RNA (pull-down) (MSI1): attenuate, at least in part; effect on cell viability (HCT-116; 300 µM, HCT-116): no effect; IC50 (HCT-116; Homo sapiens, HCT-116, MTT): > 300000 nM |
| 3900 | 1700 | CC[C@H](C)/C=C(C)/C=C/C1=CC2=CC(=O)C(C)(O)C(=O)C2=CO1 (some centres unmarked) [Aza-11] | – |
| – | – | CC[C@H](C)/C=C(C)/C=C/C1=CC2=C(Cl)C(=O)C(C)(O)C(=O)C2=CO1 (some centres unmarked) [Aza-12] | IC50 (RBD1 of MSI1): 6300 nM; Ki (RBD1 of MSI1): 2700 nM |
| 4500 | 1900 | CC[C@H](C)/C=C(C)/C=C/C1=CC2=C(Br)C(=O)C(C)(O)C(=O)C2=CO1 (some centres unmarked) [Aza-13] | – |
| – | – | UAGGUAGUAGUUUUA (ssRNA) [NumbFITC RNA] | Kd (GB1-MSI1-RBD1): < 250 nM |

| Molecule | IC50 (RBD1 of MSI1; [1]) [nM] | Ki (RBD1 of MSI1; [2]) [nM] | other results |
| --- | --- | --- | --- |
| CC[C@H](C)/C=C(C)/C=C/C1=CC2=C(Cl)C(=O)[C@](C)(OC(C)=O)C(=O)C2=CO1 [Aza-7, sclerotiorin] | 7100 | 3000 | – |
| CC[C@H](C)/C=C(C)/C=C/C1=CC2=C(Cl)C(=O)C(C)(OC(C)=O)C(=O)C2=CO1 (some centres unmarked) [Aza-8] | 4000 | 1700 | – |
